ChEMBL document CHEMBL3868594, “From lead optimization to NDA approval for a new antimicrobial: Use of pre-clinical effect models and pharmacokinetic/pharmacodynamic mathematical modeling” (2016)

Columns and labels:
Type in all cases: functional
[1] = test system: Mycobacterium tuberculosis; assay: Antibacterial activity against linezolid-resistant Mycobacterium tuberculosis H37Rv in hollow-fiber infection model assessed as reduction in bacterial burden at 342 mg, po at 24 hrs dose regimen measured after 3 weeks
[2] = test system: Mycobacterium tuberculosis; assay: Antibacterial activity against linezolid-resistant Mycobacterium tuberculosis H37Rv in hollow-fiber infection model assessed as reduction in bacterial burden at 600 mg, po at 24 hrs dose regimen measured after 3 weeks
[3] = test system: Mycobacterium tuberculosis; assay: Antibacterial activity against linezolid-resistant Mycobacterium tuberculosis H37Rv in hollow-fiber infection model assessed as reduction in bacterial burden at 858 mg, po at 24 hrs dose regimen measured after 3 weeks
[4] = test system: Mycobacterium tuberculosis; assay: Antibacterial activity against linezolid-resistant Mycobacterium tuberculosis H37Rv in hollow-fiber infection model assessed as reduction in bacterial burden at 1116 mg, po at 24 hrs dose regimen measured after 3 weeks

CC(=O)NC[C@H]1CN(c2ccc(N3CCOCC3)c(F)c2)C(=O)O1 [LINEZOLID]
Activity [1]: 0.5 log10CFU/ml | Activity [2]: 1.7 log10CFU/ml | Activity [3]: 3 log10CFU/ml | Activity [4]: 3 log10CFU/ml
